Experimental data: patent US20230250066A1, “HERBICIDAL CINNOLINE DERIVATIVES” (SYNGENTA CROP PROTECTION AG, priority 2020, published 2023)

What was measured:
Format in all cases: in vivo
[1] = test system: Amaranthus retoflexus (AMARE); assay: Pre-emergence herbicidal test; conditions: 1000 g/ha, evaluated after 13 days
[2] = test system: Ipomoea hederacea (IPOHE); assay: Pre-emergence herbicidal test; conditions: 1000 g/ha, evaluated after 13 days
[3] = test system: Echinochloa crus-galli (ECHCG); assay: Pre-emergence herbicidal test; conditions: 1000 g/ha, evaluated after 13 days
[4] = test system: Abutilon theophrasti (ABUTH); assay: Pre-emergence herbicidal test; conditions: 1000 g/ha, evaluated after 13 days
[5] = test system: Setaria faberi (SETFA); assay: Pre-emergence herbicidal test; conditions: 1000 g/ha, evaluated after 13 days
[6] = test system: Zea mays (ZEAMX); assay: Pre-emergence herbicidal test; conditions: 1000 g/ha, evaluated after 13 days
[7] = test system: Amaranthus retoflexus (AMARE); assay: Post-emergence herbicidal test; conditions: 1000 g/ha unless otherwise stated, evaluated after 13 days
Experimental: (§1) Seeds of a variety of test species are sown in standard soil in pots (Amaranthus retoflexus (AMARE), Solanum nigrum (SOLNI), Setaria faberi (SETFA), Lolium perenne (LOLPE), Echinochloa crus-galli (ECHCG), Ipomoea hederacea (IPOHE), Abutilon theophrasti (ABUTH), Zea mays (ZEAMX)). After 8 days cultivation under controlled conditions in a glasshouse (at 24° C./16° C., day/night; 14 hours light; 65% humidity), the plants are sprayed with an aqueous spray solution derived from the formulation of the technical active ingredient in acetone/water (50:50) solution containing 0.5% Tween 20 (polyoxyethelyene sorbitan monolaurate, CAS RN 9005-64-5). Compounds are applied at 1000 g/ha unless otherwise stated. The test plants are then grown in a glasshouse under controlled conditions in a glasshouse (at 24° C./16° C., day/night; 14 hours light; 65% humidity) and watered twice daily. After 13 days the test is evaluated for the percentage damage caused to the plant. The biological activities are shown in the following table on a five-point scale (5=81-100%; 4=61-80%; 3=41-60%; 2=21-40%; 1=10-20%; 0=0%;−=not tested).

[8] = test system: Setaria faberi (SETFA); assay: Post-emergence herbicidal test; conditions: 1000 g/ha unless otherwise stated, evaluated after 13 days
Experimental: as §1

[9] = test system: Abutilon theophrasti (ABUTH); assay: Post-emergence herbicidal test; conditions: 1000 g/ha unless otherwise stated, evaluated after 13 days
Experimental: as §1

[10] = test system: Ipomoea hederacea (IPOHE); assay: Post-emergence herbicidal test; conditions: 1000 g/ha unless otherwise stated, evaluated after 13 days
Experimental: as §1

[11] = test system: Zea mays (ZEAMX); assay: Post-emergence herbicidal test; conditions: 1000 g/ha unless otherwise stated, evaluated after 13 days
Experimental: as §1

[12] = test system: Echinochloa crus-galli (ECHCG); assay: Post-emergence herbicidal test; conditions: 1000 g/ha unless otherwise stated, evaluated after 13 days
Experimental: as §1

CCOC(=O)c1nn(-c2ccc(OC(F)(F)F)cc2)c2cccc(SCC)c2c1=O [Compound P23, ethyl 5-ethylsulfanyl-4-oxo-1-[4-(trifluoromethoxy)phenyl]cinnoline-3-carboxylate]
percentage damage caused to the plant, five-point scale, AMARE [1]: 0 (0=0%)
percentage damage caused to the plant, five-point scale, IPOHE [2]: 0 (0=0%)
percentage damage caused to the plant, five-point scale, ECHCG [3]: 0 (0=0%)
percentage damage caused to the plant, five-point scale, ABUTH [4]: 0 (0=0%)
percentage damage caused to the plant, five-point scale, SETFA [5]: 0 (0=0%)
percentage damage caused to the plant, five-point scale, ZEAMX [6]: 1 (1=10-20%)
percentage damage caused to the plant, AMARE (five-point scale) [7]: 0 (0=0%)
percentage damage caused to the plant, SETFA (five-point scale) [8]: 1 (1=10-20%)
percentage damage caused to the plant, ABUTH (five-point scale) [9]: 1 (1=10-20%)
percentage damage caused to the plant, IPOHE (five-point scale) [10]: 1 (1=10-20%)
percentage damage caused to the plant, ZEAMX (five-point scale) [11]: 1 (1=10-20%)
percentage damage caused to the plant, ECHCG (five-point scale) [12]: 1 (1=10-20%)

CCOC(=O)c1nn(-c2ccc(OC(F)(F)F)cc2)c2cccc([S+]([O-])CC)c2c1=O (stereo not drawn) [Compound P24, ethyl 5-ethylsulfinyl-4-oxo-1-[4-(trifluoromethoxy)phenyl]cinnoline-3-carboxylate]
percentage damage caused to the plant, five-point scale, AMARE [1]: 0 (0=0%)
percentage damage caused to the plant, five-point scale, IPOHE [2]: 0 (0=0%)
percentage damage caused to the plant, five-point scale, ECHCG [3]: 0 (0=0%)
percentage damage caused to the plant, five-point scale, ABUTH [4]: 0 (0=0%)
percentage damage caused to the plant, five-point scale, SETFA [5]: 0 (0=0%)
percentage damage caused to the plant, five-point scale, ZEAMX [6]: 0 (0=0%)
percentage damage caused to the plant, AMARE (five-point scale) [7]: 1 (1=10-20%)
percentage damage caused to the plant, SETFA (five-point scale) [8]: 0 (0=0%)
percentage damage caused to the plant, ABUTH (five-point scale) [9]: 1 (1=10-20%)
percentage damage caused to the plant, IPOHE (five-point scale) [10]: 0 (0=0%)
percentage damage caused to the plant, ZEAMX (five-point scale) [11]: 1 (1=10-20%)
percentage damage caused to the plant, ECHCG (five-point scale) [12]: 1 (1=10-20%)

CC[S+]([O-])c1cccc2c1c(=O)c(C(=O)O)nn2-c1ccc(OC(F)(F)F)cc1 (stereo not drawn) [Compound P25, 5-ethylsulfinyl-4-oxo-1-[4-(trifluoromethoxy)phenyl]cinnoline-3-carboxylic acid]
percentage damage caused to the plant, five-point scale, AMARE [1]: 0 (0=0%)
percentage damage caused to the plant, five-point scale, IPOHE [2]: 0 (0=0%)
percentage damage caused to the plant, five-point scale, ECHCG [3]: 0 (0=0%)
percentage damage caused to the plant, five-point scale, ABUTH [4]: 0 (0=0%)
percentage damage caused to the plant, five-point scale, SETFA [5]: 1 (1=10-20%)
percentage damage caused to the plant, five-point scale, ZEAMX [6]: 0 (0=0%)
percentage damage caused to the plant, AMARE (five-point scale) [7]: 0 (0=0%)
percentage damage caused to the plant, SETFA (five-point scale) [8]: 2 (2=21-40%)
percentage damage caused to the plant, ABUTH (five-point scale) [9]: 1 (1=10-20%)
percentage damage caused to the plant, IPOHE (five-point scale) [10]: 1 (1=10-20%)
percentage damage caused to the plant, ZEAMX (five-point scale) [11]: 1 (1=10-20%)
percentage damage caused to the plant, ECHCG (five-point scale) [12]: 1 (1=10-20%)

CCSc1cccc2c1c(=O)c(C(=O)O)nn2-c1ccc(OC(F)(F)F)cc1 [Compound P26, 5-ethylsulfanyl-4-oxo-1-[4-(trifluoromethoxy)phenyl]cinnoline-3-carboxylic acid]
percentage damage caused to the plant, five-point scale, AMARE [1]: 1 (1=10-20%)
percentage damage caused to the plant, five-point scale, IPOHE [2]: 0 (0=0%)
percentage damage caused to the plant, five-point scale, ECHCG [3]: 0 (0=0%)
percentage damage caused to the plant, five-point scale, ABUTH [4]: 0 (0=0%)
percentage damage caused to the plant, five-point scale, SETFA [5]: 0 (0=0%)
percentage damage caused to the plant, five-point scale, ZEAMX [6]: 0 (0=0%)
percentage damage caused to the plant, AMARE (five-point scale) [7]: 0 (0=0%)
percentage damage caused to the plant, SETFA (five-point scale) [8]: 1 (1=10-20%)
percentage damage caused to the plant, ABUTH (five-point scale) [9]: 1 (1=10-20%)
percentage damage caused to the plant, IPOHE (five-point scale) [10]: 0 (0=0%)
percentage damage caused to the plant, ZEAMX (five-point scale) [11]: 1 (1=10-20%)
percentage damage caused to the plant, ECHCG (five-point scale) [12]: 1 (1=10-20%)

CCS(=O)(=O)c1cccc2c1c(=O)c(C(=O)O)nn2-c1ccc(OC(F)(F)F)cc1 [Compound P27, 5-ethylsulfonyl-4-oxo-1-[4-(trifluoromethoxy)phenyl]cinnoline-3-carboxylic acid]
percentage damage caused to the plant, five-point scale, AMARE [1]: 0 (0=0%)
percentage damage caused to the plant, five-point scale, IPOHE [2]: 0 (0=0%)
percentage damage caused to the plant, five-point scale, ECHCG [3]: 0 (0=0%)
percentage damage caused to the plant, five-point scale, ABUTH [4]: 0 (0=0%)
percentage damage caused to the plant, five-point scale, SETFA [5]: 3 (3=41-60%)
percentage damage caused to the plant, five-point scale, ZEAMX [6]: 1 (1=10-20%)
percentage damage caused to the plant, AMARE (five-point scale) [7]: 0 (0=0%)
percentage damage caused to the plant, SETFA (five-point scale) [8]: 2 (2=21-40%)
percentage damage caused to the plant, ABUTH (five-point scale) [9]: 1 (1=10-20%)
percentage damage caused to the plant, IPOHE (five-point scale) [10]: 0 (0=0%)
percentage damage caused to the plant, ZEAMX (five-point scale) [11]: 1 (1=10-20%)
percentage damage caused to the plant, ECHCG (five-point scale) [12]: 2 (2=21-40%)

CCOC(=O)c1nn(-c2ccc(OC(F)(F)F)cc2)c2cccc([S+](C)[O-])c2c1=O (stereo not drawn) [Compound P28, ethyl 5-methylsulfinyl-4-oxo-1-[4-(trifluoromethoxy)phenyl]cinnoline-3-carboxylate]
percentage damage caused to the plant, five-point scale, AMARE [1]: 0 (0=0%)
percentage damage caused to the plant, five-point scale, IPOHE [2]: 0 (0=0%)
percentage damage caused to the plant, five-point scale, ECHCG [3]: 0 (0=0%)
percentage damage caused to the plant, five-point scale, ABUTH [4]: 0 (0=0%)
percentage damage caused to the plant, five-point scale, SETFA [5]: 0 (0=0%)
percentage damage caused to the plant, five-point scale, ZEAMX [6]: 0 (0=0%)
percentage damage caused to the plant, AMARE (five-point scale) [7]: 1 (1=10-20%)
percentage damage caused to the plant, SETFA (five-point scale) [8]: 1 (1=10-20%)
percentage damage caused to the plant, ABUTH (five-point scale) [9]: 1 (1=10-20%)
percentage damage caused to the plant, IPOHE (five-point scale) [10]: 0 (0=0%)
percentage damage caused to the plant, ZEAMX (five-point scale) [11]: 0 (0=0%)
percentage damage caused to the plant, ECHCG (five-point scale) [12]: 0 (0=0%)

O=C(O)c1nn(-c2ccc(OC(F)(F)F)cc2)c2cccc(S(=O)(=O)C3CC3)c2c1=O [Compound P29, 5-cyclopropylsulfonyl-4-oxo-1-[4-(trifluoromethoxy)phenyl]cinnoline-3-carboxylic acid]
percentage damage caused to the plant, five-point scale, AMARE [1]: 0 (0=0%)
percentage damage caused to the plant, five-point scale, IPOHE [2]: 0 (0=0%)
percentage damage caused to the plant, five-point scale, ECHCG [3]: 0 (0=0%)
percentage damage caused to the plant, five-point scale, ABUTH [4]: 0 (0=0%)
percentage damage caused to the plant, five-point scale, SETFA [5]: 0 (0=0%)
percentage damage caused to the plant, five-point scale, ZEAMX [6]: 0 (0=0%)
percentage damage caused to the plant, AMARE (five-point scale) [7]: 0 (0=0%)
percentage damage caused to the plant, SETFA (five-point scale) [8]: 0 (0=0%)
percentage damage caused to the plant, ABUTH (five-point scale) [9]: 0 (0=0%)
percentage damage caused to the plant, IPOHE (five-point scale) [10]: 0 (0=0%)
percentage damage caused to the plant, ZEAMX (five-point scale) [11]: 0 (0=0%)
percentage damage caused to the plant, ECHCG (five-point scale) [12]: 0 (0=0%)

O=C(O)c1nn(-c2ccc(OC(F)(F)F)cc2)c2cccc(SC3CC3)c2c1=O [Compound P30, 5-cyclopropylsulfanyl-4-oxo-1-[4-(trifluoromethoxy)phenyl]cinnoline-3-carboxylic acid]
percentage damage caused to the plant, five-point scale, AMARE [1]: 0 (0=0%)
percentage damage caused to the plant, five-point scale, IPOHE [2]: 0 (0=0%)
percentage damage caused to the plant, five-point scale, ECHCG [3]: 0 (0=0%)
percentage damage caused to the plant, five-point scale, ABUTH [4]: 0 (0=0%)
percentage damage caused to the plant, five-point scale, SETFA [5]: 0 (0=0%)
percentage damage caused to the plant, five-point scale, ZEAMX [6]: 0 (0=0%)
percentage damage caused to the plant, AMARE (five-point scale) [7]: 1 (1=10-20%)
percentage damage caused to the plant, SETFA (five-point scale) [8]: 1 (1=10-20%)
percentage damage caused to the plant, ABUTH (five-point scale) [9]: 1 (1=10-20%)
percentage damage caused to the plant, IPOHE (five-point scale) [10]: 1 (1=10-20%)
percentage damage caused to the plant, ZEAMX (five-point scale) [11]: 1 (1=10-20%)
percentage damage caused to the plant, ECHCG (five-point scale) [12]: 1 (1=10-20%)

O=C(O)c1nn(-c2ccc(OC(F)(F)F)cc2)c2cccc([S+]([O-])C3CC3)c2c1=O (stereo not drawn) [Compound P31, 5-cyclopropylsulfinyl-4-oxo-1-[4-(trifluoromethoxy)phenyl]cinnoline-3-carboxylic acid]
percentage damage caused to the plant, five-point scale, AMARE [1]: 0 (0=0%)
percentage damage caused to the plant, five-point scale, IPOHE [2]: 0 (0=0%)
percentage damage caused to the plant, five-point scale, ECHCG [3]: 0 (0=0%)
percentage damage caused to the plant, five-point scale, ABUTH [4]: 0 (0=0%)
percentage damage caused to the plant, five-point scale, SETFA [5]: 0 (0=0%)
percentage damage caused to the plant, five-point scale, ZEAMX [6]: 0 (0=0%)
percentage damage caused to the plant, AMARE (five-point scale) [7]: 0 (0=0%)
percentage damage caused to the plant, SETFA (five-point scale) [8]: 0 (0=0%)
percentage damage caused to the plant, ABUTH (five-point scale) [9]: 0 (0=0%)
percentage damage caused to the plant, IPOHE (five-point scale) [10]: 0 (0=0%)
percentage damage caused to the plant, ZEAMX (five-point scale) [11]: 0 (0=0%)
percentage damage caused to the plant, ECHCG (five-point scale) [12]: 0 (0=0%)
